Test results: patent EP0046707B1, “Derivatives of 4-aminobutyric acid and the medicines especially active on the central nervous system containing them” (priority 1980, dated 1982)
Read-outs that look alike come from different tables or passages of the source.

Assays:
souris [1] = assay: Anticonvulsant effect against electroshock seizures; type: in vivo; conditions: 1 h; mouse, electroshock 12.5 V for 0.5 s, 60 min after oral dosing; read-out: Dose efficace médiane de protection des crises toniques (DE 50) Electrochoc
Method: (§1) L'effet anticonvulsivant a été déterminé vis-à-vis des crises convulsives provoquées par l'électrochoc ou par la bicuculline.
L'électrochoc (12,5 V pendant 0,5 s) est effectué chez la souris 60 min après l'administration du produit par voie orale.
(§2) En opérant sur divers lots d'animaux avec des doses différentes du produit à étudier, on peut déterminer la dose efficace médiane (DE 50).
(§3) Les résultats sont rassemblés dans le tableau VIII ci-après et montrent les propriétés anticonvulsivan- tes nettes des produits étudiés.

rats = assay: Electroencephalographic study (sleep/wake analysis per 24 h); type: in vivo; conditions: rat; for EV / SL / SP / ST: per 24 h
Method: Pour mieux comprendre l'activité hypnotique des produits selon l'invention, une étude électroencéphalographique a été effectuée sur l'un deux, à savoir CM 40039.
[…] Après une période d'habituation de 10 jours (période éclairée de 8 h à 20 h et période obscure de 20 h à 8 h), les animaux sont enregistrés pendant 5 jours avec le solvant (gomme arabique à 10 %), puis enregistrés pendant 4 jours pendant lesquels ils reçoivent le produit à 9 h chaque matin. Après cette administration chronique, les animaux sont enregistrés les 5 jours suivants (période de contrôle).
Les animaux sont enregistrés 24 h sur 24. L'étude statistique porte sur des tranches de 24 h. On fait une analyse globale sur les trois rats en cumulant les 15 journées témoins, les 12 journées de traitement, les 15 journées de contrôle. Dans chaque tranche horaire de 24 h, on évalue le temps d'éveil (EV), de sommeil lent (SL), de sommeil paradoxal (SP), de sommeil total (ST), ainsi que le rapport (en %) sommeil paradoxal/sommeil total (SP/ST) (voir tableau VII ci-après).

[2] = test system: GABA (acide amino-4 butyrique); assay: Effect on whole-brain GABA level; type: in vivo, souris
Method: Le 40039 a été administré 30 min avant le sacrifice chez la souris. Le taux de GABA a été évalué sur le cerveau entier (lots de 6 animaux) (voir tableau IX ci-après).

souris [3] = assay: Actography (locomotor activity, two perpendicular light beams); type: in vivo; conditions: mouse, 500 mg/kg oral
Method: La mesure de l'actographie est effectuée chez la souris 45 min. après l'administration du produit. On opère sur des lots de 12 animaux, chacun d'eux étant isolé pendant 10 min. avant la mesure. Le comptage des scores est effectué par coupure de deux faisceaux lumineux perpendiculaires.
Dans le tableau IV ci-après sont rassemblés les résultats obtenus avec divers produits de l'invention administrés à la dose de 500 mg/kg par voie orale. Les résultats sont exprimés en pourcentage de variation des scores obtenus par rapport à des animaux témoins non traités.
On peut constater que les produits se répartissent en deux groupes : • ceux provoquant de l'hypomotilité tels que 40217, 40039, 40271, 40272, 40319; dans le cas où les animaux traités présentent une perte du réflexe de retournement, ce qui traduit l'effet de narcose propre du produit, on a noté PRR; • ceux provoquant de l'hypermotilité, tels que 40142, 40398, 40397, 40404, 40253, 40355, 40209; pour préciser les résultats obtenus, l'étude pour deux produits a été reprise en effet-dose suivant le même protocole. • Les résultats obtenus figurent dans le tableau V ci-après.

souris [4] = assay: Anticonvulsant effect against bicuculline-induced tonic seizures; type: in vivo; conditions: 1 h; mouse, bicuculline 1 mg/kg i.v. 60 min after oral dosing; read-out: Dose efficace médiane de protection des crises toniques (DE 50) Bicuculline
Method: as §1
La bicuculline est administrée à la souris par voie intraveineuse à raison de 1 mg/kg, 60 min après le produit à étudier donné per os. On note l'effet protecteur obtenu vis-à-vis des crises toniques.
as §2, §3

[5] = Acute toxicity (mortality over 24 h); conditions: in vivo, po, mouse, observed 24 h
Method: Les produits à étudier sont administrés par voie orale aux doses de 500 et 1 000 mg/kg à des lots de souris. On observe les souris pendant 24 h et note la mortalité.
Les résultats exprimés en pourcentage de mortalité figurent dans le tableau XI ci-après.

[6] = test system: acide homovanillique (HVA); assay: Effect on central dopaminergic activity (homovanillic acid accumulation in whole brain); type: in vivo, souris; conditions: mouse whole brain, 500 mg/kg p.os
Method: L'effet des produits sur l'activité dopaminergique centrale a été étudié par la mesure de l'accumulation de l'acide homovanillique sur une période de 24 h après l'administration des produits chez la souris.
Le taux d'acide homovanillique (HVA) est évalué dans le cerveau entier, les animaux reçoivent une injection de probenecid (200 mg/kg i.p.) 1 h 30 min avant le sacrifice (lot de 10 animaux).

souris [7] = assay: Potentiation of pentobarbital narcosis (loss of righting reflex); type: in vivo; conditions: po; mouse, p. os 1 h before pentobarbital 20 mg/kg i.p.; unit not given for DE 50; read-out: dose (p. os) provoquant 50 % d'induction de narcose (DE 50)
Method: Les produits à étudier ont été administrés per os chez la souris à la dose de 500 mg/kg, 1 h avant le pentobarbital injecté par voie intrapéritonéale à raison de 20 mg/kg.
On détermine le pourcentage des animaux ayant perdu le réflexe de retournement. Les résultats sont exprimés en pourcentage ou, dans quelques cas, en dose efficace 50 (DE 50) ou dose provoquant la narcose chez 50 % des animaux traités.
Les résultats figurent dans le tableau VI ci-après.

[8] = post-treatment 'Contrôle' period

CCCCN(CCCC)C(=O)CCCNC(=O)CCC [40 039, Butyl-10 dioxo-4,9 diaza-5,10 tétradécane]
ED50 (souris [1]): 250 mg/kg
EV (rats; 'Contrôle' = 5 days after end of chronic treatment): 40,3 ± 3,6
SP/ST (rats; [8]): 13,5 ± 1,8%
SL (rats; [8]): 51 ± 3
SP (rats; [8]): 8,6 ± 1,7
ST (rats; [8]): 59,6 ± 3,9
EV (rats; treatment period (12 days pooled, 3 rats), 325 mg/kg as in table head, wake time): 40,6 ± 3
SP (rats; treatment period, paradoxical sleep): 8,1 ± 1,4
SL (rats; treatment period, slow-wave sleep): 51,5 ± 2
ST (rats; treatment period, total sleep): 59,5 ± 2,6
SP/ST (rats; treatment period, ratio paradoxical/total sleep): 13,2 ± 1,9%
Taux de GABA en µg/g cerveau ([2]; mouse whole brain, 500 mg/kg p. os, 30 min before sacrifice): 321 ± 12 µg/g cerveau
Taux de GABA p.cent/témoins ([2]; mouse whole brain, 500 mg/kg p. os, change vs controls): 14,6 p.cent
taux de GABA dans le cerveau total ([2]; mouse, result in words): rapide augmentation
Mesure de l'actographie (p. cent scores/témoins) (souris [3]; 45 min after dosing, change of scores vs untreated controls, PRR = loss of righting reflex): PRR
hypomotilité / hypermotilité (souris [3]; grouping in words): hypomotilité
ED50 (souris [4]): 300 mg/kg
mortality at 24 h ([5]; 500 mg/kg p. os, read-out: p. cent de mortalité à 500 mg/kg p. os): 0%
mortality at 24 h ([5]; 1000 mg/kg p. os, read-out: p. cent de mortalité à 1000 mg/kg p. os): 100%
Taux de HVA en ([6]; 2 h): 798 ± 34 ng/g
Taux de HVA en ([6]; 4 h): 894 ± 37 ng/g
Taux de HVA en ([6]; 6 h): 659 ± 29 ng/g
Taux de HVA (variation vs 0) ([6]; 6 h, change vs time 0): 0%
Taux de HVA en ([6]; 24 h): 441 ± 19 ng/g
Taux de HVA en ([6]; time 0 (baseline)): 658 ± 40 ng/g
ED50 (souris [7]): 200 mg/kg
